Assay results reported in PubChem BioAssay AID1919015 (Molecular Pharmacology Branch, DTP, NCI, 2023).

System: OVCAR-5 complex spheroids with HUVEC/MSC, viability, % test/control
Test: Anticancer human tumor OVCAR-5 cell line growth inhibition [AhR];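 also: spheroids exposed to compounds for 7 days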;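 as to viability, T/C: 100% = DMSO vehicle control wells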
Details: for IC50: curve of first compound; for viability, T/C: stronger effect = lower value
Summary of the method: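 Agents were dosed in half-log steps down from roughly clinical Cmax, or from 10 microM where Cmax was unknown, alone and with AhR antagonists. Read-out: percent test/control growth of tumor spheroids containing HUVEC and MSC stromal cells.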

[1] = second compound 0.1 µM, first compound 0.0316 µM
[2] = second compound 0.1 µM, first compound 0.1 µM
[3] = second compound 0.1 µM, first compound 0.316 µM
[4] = second compound 0.1 µM, first compound 1 µM
[5] = second compound 0.1 µM, first compound 3.16 µM
[6] = second compound 0.1 µM, first compound 10 µM
[7] = second compound 0.316 µM, first compound 0.0316 µM
[8] = second compound 0.316 µM, first compound 0.1 µM
[9] = second compound 0.316 µM, first compound 0.316 µM
[10] = second compound 0.316 µM, first compound 1 µM
[11] = second compound 0.316 µM, first compound 3.16 µM
[12] = second compound 0.316 µM, first compound 10 µM
[13] = second compound 1 µM, first compound 0.0316 µM
[14] = second compound 1 µM, first compound 0.1 µM
[15] = second compound 1 µM, first compound 0.316 µM
[16] = second compound 1 µM, first compound 1 µM
[17] = second compound 1 µM, first compound 3.16 µM
[18] = second compound 1 µM, first compound 10 µM
[19] = second compound 3.16 µM, first compound 0.0316 µM
[20] = second compound 3.16 µM, first compound 0.1 µM
[21] = second compound 3.16 µM, first compound 0.316 µM
[22] = second compound 3.16 µM, first compound 1 µM
[23] = second compound 3.16 µM, first compound 3.16 µM
[24] = second compound 3.16 µM, first compound 10 µM
[25] = second compound 10 µM, first compound 0.0316 µM
[26] = second compound 10 µM, first compound 0.1 µM
[27] = second compound 10 µM, first compound 0.316 µM
[28] = second compound 10 µM, first compound 1 µM
[29] = second compound 10 µM, first compound 3.16 µM
[30] = second compound 10 µM, first compound 10 µM
[31] = second compound 0.1 µM, first compound 0.00316 µM
[32] = second compound 0.1 µM, first compound 0.01 µM
[33] = second compound 0.316 µM, first compound 0.00316 µM
[34] = second compound 0.316 µM, first compound 0.01 µM
[35] = second compound 1 µM, first compound 0.00316 µM
[36] = second compound 1 µM, first compound 0.01 µM
[37] = second compound 3.16 µM, first compound 0.00316 µM
[38] = second compound 3.16 µM, first compound 0.01 µM
[39] = second compound 10 µM, first compound 0.00316 µM
[40] = second compound 10 µM, first compound 0.01 µM

Row | SMILES | IC50 (second compound 0.1 µM) | IC50 (second compound 0.316 µM) | IC50 (second compound 1 µM) | IC50 (second compound 3.16 µM) | IC50 (second compound 10 µM) | viability, T/C [1] | viability, T/C [2] | viability, T/C [3] | viability, T/C [4] | viability, T/C [7] | viability, T/C [8] | viability, T/C [9] | viability, T/C [10] | viability, T/C [13] | viability, T/C [14] | viability, T/C [15] | viability, T/C [16] | viability, T/C [19] | viability, T/C [20] | viability, T/C [21] | other results
1 | CC(C)c1c(-c2ccccc2)nc2c(C#N)c[nH]n2c1=O + CC(CO)NC(=O)c1cc(-c2ccc(Cl)cc2)nn(-c2cnn(C)c2)c1=O | > 10000 nM | > 10000 nM | > 10000 nM | > 10000 nM | > 10000 nM | 117% | 111% | 112% | 115% | 107% | 117% | 114% | 115% | 114% | 121% | 119% | 116% | 99% | 108% | 107% | viability, T/C [5]: 114%; viability, T/C [6]: 116%; viability, T/C [11]: 116%; viability, T/C [12]: 119%; viability, T/C [17]: 117%; viability, T/C [18]: 121%; viability, T/C [22]: 105%; viability, T/C [23]: 111%; viability, T/C [24]: 111%; viability, T/C [25]: 101%; viability, T/C [26]: 105%; viability, T/C [27]: 100%; viability, T/C [28]: 101%; viability, T/C [29]: 103%; viability, T/C [30]: 104%
2 | CC1COCCN1c1cc(-c2ccnn2C)c2ccnc(-c3ccn[nH]3)c2n1 (stereo not given) + CC(CO)NC(=O)c1cc(-c2ccc(Cl)cc2)nn(-c2cnn(C)c2)c1=O | 281 nM | 276 nM | 297 nM | 207 nM | 95.8 nM | 110% | 87% | 46.2% | 30.8% | 109% | 87% | 45.1% | 32.1% | 118% | 89% | 48.6% | 35.4% | 102% | 67.6% | 40.3% | viability, T/C [31]: 111%; viability, T/C [32]: 111%; viability, T/C [33]: 111%; viability, T/C [34]: 113%; viability, T/C [35]: 119%; viability, T/C [36]: 121%; viability, T/C [37]: 106%; viability, T/C [38]: 115%; viability, T/C [22]: 35%; viability, T/C [39]: 99.7%; viability, T/C [40]: 103%; viability, T/C [25]: 83.9%; viability, T/C [26]: 49%; viability, T/C [27]: 35.5%; viability, T/C [28]: 33.5%
3 | COc1ccc([C@@H](O)c2cc(-c3ncnc4cc(N5CCOCC5)ccc34)c(F)cc2Cl)nn1 + CC(CO)NC(=O)c1cc(-c2ccc(Cl)cc2)nn(-c2cnn(C)c2)c1=O | 2570 nM | 2940 nM | 3610 nM | 3360 nM | 2350 nM | 101% | 107% | 97.6% | 75% | 105% | 105% | 102% | 80.4% | 114% | 115% | 107% | 87.4% | 99.2% | 102% | 87.3% | viability, T/C [5]: 45.3%; viability, T/C [6]: 23.8%; viability, T/C [11]: 48.6%; viability, T/C [12]: 24.4%; viability, T/C [17]: 52.9%; viability, T/C [18]: 28.6%; viability, T/C [22]: 77.5%; viability, T/C [23]: 50.5%; viability, T/C [24]: 27.7%; viability, T/C [25]: 98%; viability, T/C [26]: 96.6%; viability, T/C [27]: 85.4%; viability, T/C [28]: 69%; viability, T/C [29]: 43.3%; viability, T/C [30]: 26.2%
4 | COc1cc(C2c3cc4c(cc3C(OC3OC5COC(C)OC5C(O)C3O)C3COC(=O)C23)OCO4)cc(OC)c1O (stereo not given) + Cc1ccccc1N=Nc1ccc(NC(=O)c2ccnn2C)c(C)c1 | 2090 nM | 2250 nM | 2500 nM | 2750 nM | 2910 nM | 105% | 104% | 98.8% | 68.3% | 114% | 114% | 103% | 68.8% | 115% | 116% | 105% | 73.5% | 112% | 121% | 110% | viability, T/C [5]: 40.4%; viability, T/C [6]: 32.1%; viability, T/C [11]: 43.4%; viability, T/C [12]: 32.9%; viability, T/C [17]: 44.1%; viability, T/C [18]: 36.1%; viability, T/C [22]: 77.1%; viability, T/C [23]: 47.9%; viability, T/C [24]: 38.2%; viability, T/C [25]: 105%; viability, T/C [26]: 107%; viability, T/C [27]: 98%; viability, T/C [28]: 68.8%; viability, T/C [29]: 51.8%; viability, T/C [30]: 38.9%
5 | COc1cccc2c1C(=O)c1c(O)c3c(c(O)c1C2=O)CC(O)(C(=O)CO)CC3OC1CC(N)C(O)C(C)O1 (stereo not given) + Cc1ccccc1N=Nc1ccc(NC(=O)c2ccnn2C)c(C)c1 | 139 nM | 164 nM | 231 nM | 269 nM | 391 nM | 60.9% | 48.8% | 42.5% | 23.8% | 61.6% | 51.7% | 43.6% | 23.7% | 63.4% | 53.2% | 48% | 22.3% | 65.3% | 59.4% | 48% | viability, T/C [5]: 1.63%; viability, T/C [6]: 0.98%; viability, T/C [11]: 1.72%; viability, T/C [12]: 1.7%; viability, T/C [17]: 1.44%; viability, T/C [18]: 1%; viability, T/C [22]: 23%; viability, T/C [23]: 1.21%; viability, T/C [24]: 1.15%; viability, T/C [25]: 63.4%; viability, T/C [26]: 62.2%; viability, T/C [27]: 55%; viability, T/C [28]: 25.1%; viability, T/C [29]: 1.08%; viability, T/C [30]: 1.24%
6 | Nc1ncn(C2CC(O)C(CO)O2)c(=O)n1 (stereo not given) + Cc1ccccc1N=Nc1ccc(NC(=O)c2ccnn2C)c(C)c1 | > 1000 nM | > 1000 nM | > 1000 nM | > 1000 nM | > 1000 nM | 88.3% | 76.4% | 65% | 64.5% | 94.3% | 79.6% | 69.3% | 59.2% | 98.2% | 81.4% | 68.9% | 62% | 100% | 85.9% | 72% | viability, T/C [31]: 99%; viability, T/C [32]: 98.3%; viability, T/C [33]: 104%; viability, T/C [34]: 104%; viability, T/C [35]: 108%; viability, T/C [36]: 105%; viability, T/C [37]: 105%; viability, T/C [38]: 109%; viability, T/C [22]: 62.2%; viability, T/C [39]: 104%; viability, T/C [40]: 109%; viability, T/C [25]: 100%; viability, T/C [26]: 82.5%; viability, T/C [27]: 68.1%; viability, T/C [28]: 61.4%
